Legend:
[1] = Clearance of proET-1 peptides after i.v. bolus in anaesthetised rats; format: in vivo, rat
Description: To examine whether circulating half-lives influenced plasma levels of proET-1 peptides clearance rates were investigated in anaesthetised rats. […] Based on a circulating blood volume of 7.2 ± 0.3 ml per 100 g body weight, a mean weight of 345 ± 6 g and hematocrit of 40–60%, the hypothetical maximum plasma concentrations were 23–35 pmol/ml. However, the levels of NT-proET-1, ELDP and CT-proET-1 30 s after injection were 0.29 ± 0.02, 3.65 ± 0.23, and 11.74 ± 0.64 pmol/ml, respectively. Relative to estimates for dilution in circulating blood, these values represent ≈1%, 10–16%, and 34–51% of administered peptide for NT-proET-1, ELDP and CT-proET-1. Moreover, NT-proET-1 was almost completely cleared from the circulation in <5 min (estimated initial t½ < 20 s).
Figure 5 Comparison of clearance rates of NT-proET-1, ELDP and CT-proET-1 in anaesthetised rats. A bolus dose containing 1 nmol/kg of each proET-1 peptide as a combined solution prepared in 0.9% saline/0.1% BSA was administered i.v. and heparinised arterial blood samples (0.5 ml) were collected at 0.5, 1, 2, 5, 10, 20 and 40 min after administration of proET-1 peptides. NT-proET-1 (mauve circles), ELDP (red circles) and CT-proET-1 (blue circles) were measured by magnetic bead-based multiplex assays using Luminex methodology (values are mean ± SD, except where SD is less than the symbol size).
A multiplexed immunoassay system was used for simultaneous measurement of NT-proET-1, ELDP and CT-proET-1 in small volumes of rat plasma. Capture antibodies were conjugated to magnetic beads (region 45 – NT-proET-1, region 36 – ELDP, and region 27 – CT-proET-1) following standard protocols (Luminex Corporation). For assay capture antibody-coated magnetic beads were diluted as a premixed combination (10 µl/well) and incubated overnight at 4 °C on an orbital plate mixer with plasma (15 µl) and assay buffer (135 µl). For detection, beads were washed using a ring magnet plate washer before adding 25 µl of combined biotinylated detection antibodies and incubating for 2 h at room temperature on an orbital plate mixer.
(§1) All experiments were conducted according to the Animals (Scientific Procedures) Act 1986, UK, and approved by the UK Home Office. Clearance rates of proET-1 peptides and blood pressure effects of ELDP were determined in male Wistar rats (Charles River) anaesthetised with sodium thiopentone (120 mg/kg i.p.). Peptides were administered i.v. via a polyethylene catheter in the left femoral vein. Blood samples (0.5 ml) were collected from a catheter in the left carotid artery into chilled 1.5 ml microcentrifuge tubes containing 50 U/5 µl of heparin. Samples were centrifuged at 12,000 rpm for 2 min at 4 °C. Plasma (50 µl aliquots) samples were stored at −80 °C for subsequent analyses. Blood pressure and heart rate were recorded from the left carotid artery via a polyethylene catheter using Labchart 7.1 (AD Instruments Ltd).

anaesthetised rats = assay: Mean arterial blood pressure in anaesthetised rats; format: in vivo, rat
Description: Figure 7 Cardiovascular effects of ELDP. […] (B) vasoconstrictor response to ET-1 (1 × 10^−9 M) alone (n = 8) or after pre-incubation with ELDP[162-amide] (10 × 10^−9 M, n = 10); P < 0.002; Student’s t-test. (C) Change in mean arterial blood pressure in anaesthetised rats following ET-1 (0.3 nmol/kg, i.v.) alone (white circles, n = 6) or 15 min after ELDP (3 nmol/kg i.v.) (red circles, n = 6). […] Results are mean ± s.e.m.
as §1

[2] = rat, 1 nmol/kg i.v. bolus, plasma sampled 0.5–40 min, two-phase clearance

plasma level 30 s after injection ([1]; anaesthetised male Wistar rats, bolus 1 nmol/kg i.v. of each peptide as a combined solution in 0.9% saline/0.1% BSA, arterial plasma, Luminex multiplex immunoassay, mean ± SD): 3.65 ± 0.23 nM
estimated t½, phase 1 [1, 2]: 0.5 min
estimated t½, phase 2 [1, 2]: 5.7 min
plasma level at 30 s as % of administered peptide, relative to estimates for dilution in circulating blood ([1]; rat, 1 nmol/kg i.v., hypothetical maximum plasma concentration 23–35 pmol/ml): 10–16%
Sequence: ALENLLPTKATDRENRCQCASQKDKKCWNFCQAGKELRAEDIMEKDWNNHKKGKDCSKLGKKCIYQQLVRGRKI (disulfide (positions not given here)) [ELDP]
effect on blood pressure, peptide alone (anaesthetised rats; 3 nmol/kg i.v., anaesthetised rats): no effect
magnitude of the initial pressor response to ET-1 (anaesthetised rats; ET-1 0.3 nmol/kg i.v. given 15 min after ELDP 3 nmol/kg i.v., n = 6 per group): without changing
duration of the pressor response to ET-1 (anaesthetised rats; ET-1 0.3 nmol/kg i.v. given 15 min after ELDP 3 nmol/kg i.v., n = 6 per group, P < 0.02): significantly increased
